Literature values in patent publication US20240238194A1, “ORODISPERSIBLE EFFERVESCENT TABLET COMPRISING BUDESONIDE FOR USE IN THE TREATMENT OF EOSINOPHILIC ESOPHAGITIS” (Dr. Falk Pharma GmbH, priority 2021, published 2024).

Settings: in vivo

budesonide [OVB]
mucosal medication contact time, measured by scintigraphy: higher
